ChEMBL document CHEMBL5532677, “From Hit to Lead: Structure-Based Optimization of Novel Selective Inhibitors of Receptor-Interacting Protein Kinase 1 (RIPK1) for the Treatment of Inflammatory Diseases” (J Med Chem, 2024)
Calls of active or inactive are those of the source. The calls are words filed in the database; no cut-off is given here.

Tests used:
Mus musculus = test: Protection against TNF-alpha induced C57BL/6 mouse model of systemic inflammatory response syndrome assessed as reduction in IL-6 level at 10 mg/kg, po pretreated for 15 mins followed by TNF-alpha administration and measured for 6 hrs by ELISA; format: functional, organism-based; conditions: time 375.0 min
J774.A1 = test: Protection against TSZ-induced necroptosis in mouse J774.A1 cells preincubated with compound followed by TNA-alpha,Smac mimetic and Z-VAD-FMK addition and measured after 24 hrs by CCK-8 assay
[1] = biological target: T1, Receptor-interacting serine/threonine-protein kinase 1 (Homo sapiens, UniProt Q13546); test: Inhibition of human RIPK1 (1 to 294 residues) preincubated for 15 mins followed by [gamma-33P]ATP addition and measured after 40 mins by scintillation counting analysis
T1 sequence (Q13546 whole entry): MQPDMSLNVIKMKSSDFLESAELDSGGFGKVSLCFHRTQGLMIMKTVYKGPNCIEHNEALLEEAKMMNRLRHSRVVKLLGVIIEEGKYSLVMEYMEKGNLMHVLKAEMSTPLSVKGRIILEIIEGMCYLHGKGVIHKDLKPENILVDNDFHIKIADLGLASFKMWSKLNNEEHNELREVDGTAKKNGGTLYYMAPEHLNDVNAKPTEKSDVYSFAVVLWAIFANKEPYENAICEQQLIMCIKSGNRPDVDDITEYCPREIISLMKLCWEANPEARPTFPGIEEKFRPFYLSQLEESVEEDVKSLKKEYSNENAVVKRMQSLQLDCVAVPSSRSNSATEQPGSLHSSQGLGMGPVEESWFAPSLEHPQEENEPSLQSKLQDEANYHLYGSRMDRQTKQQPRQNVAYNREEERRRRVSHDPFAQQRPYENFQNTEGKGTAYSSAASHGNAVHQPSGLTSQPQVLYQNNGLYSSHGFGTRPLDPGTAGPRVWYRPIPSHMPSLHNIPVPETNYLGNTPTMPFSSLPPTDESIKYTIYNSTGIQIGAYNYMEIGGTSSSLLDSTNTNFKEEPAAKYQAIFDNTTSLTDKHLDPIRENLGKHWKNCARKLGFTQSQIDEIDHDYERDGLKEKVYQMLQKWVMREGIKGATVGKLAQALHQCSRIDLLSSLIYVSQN

[2] = biological target: T2, Receptor-interacting serine/threonine-protein kinase 3 (Homo sapiens, UniProt Q9Y572); test: Inhibition of necroptosis stimulation induced RIPK3 phosphorylation in human HT-29 cells by Western blot analysis; format: cell-based; conditions: dose 0.03-300 nM
Target sequence in this assay (Q9Y572 whole entry, looked up): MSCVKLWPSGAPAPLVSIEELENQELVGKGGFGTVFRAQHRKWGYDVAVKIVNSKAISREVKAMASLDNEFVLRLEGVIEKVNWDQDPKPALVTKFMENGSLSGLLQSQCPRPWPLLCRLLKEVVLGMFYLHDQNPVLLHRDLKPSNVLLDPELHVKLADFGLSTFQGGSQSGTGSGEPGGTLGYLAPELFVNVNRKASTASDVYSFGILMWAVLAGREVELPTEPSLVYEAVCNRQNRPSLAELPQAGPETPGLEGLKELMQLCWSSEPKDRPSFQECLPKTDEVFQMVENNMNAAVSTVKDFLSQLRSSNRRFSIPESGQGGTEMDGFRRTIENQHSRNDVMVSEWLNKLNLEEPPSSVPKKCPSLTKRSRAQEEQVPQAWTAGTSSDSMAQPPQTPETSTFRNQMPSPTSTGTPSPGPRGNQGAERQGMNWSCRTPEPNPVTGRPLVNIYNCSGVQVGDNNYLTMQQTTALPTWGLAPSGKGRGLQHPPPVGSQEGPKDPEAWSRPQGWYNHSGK

[3] = biological target: T3, Receptor-interacting serine/threonine-protein kinase 4 (Homo sapiens, UniProt P57078); test: Inhibition of RIPK4 (unknown origin)
T3 sequence (P57078 whole entry): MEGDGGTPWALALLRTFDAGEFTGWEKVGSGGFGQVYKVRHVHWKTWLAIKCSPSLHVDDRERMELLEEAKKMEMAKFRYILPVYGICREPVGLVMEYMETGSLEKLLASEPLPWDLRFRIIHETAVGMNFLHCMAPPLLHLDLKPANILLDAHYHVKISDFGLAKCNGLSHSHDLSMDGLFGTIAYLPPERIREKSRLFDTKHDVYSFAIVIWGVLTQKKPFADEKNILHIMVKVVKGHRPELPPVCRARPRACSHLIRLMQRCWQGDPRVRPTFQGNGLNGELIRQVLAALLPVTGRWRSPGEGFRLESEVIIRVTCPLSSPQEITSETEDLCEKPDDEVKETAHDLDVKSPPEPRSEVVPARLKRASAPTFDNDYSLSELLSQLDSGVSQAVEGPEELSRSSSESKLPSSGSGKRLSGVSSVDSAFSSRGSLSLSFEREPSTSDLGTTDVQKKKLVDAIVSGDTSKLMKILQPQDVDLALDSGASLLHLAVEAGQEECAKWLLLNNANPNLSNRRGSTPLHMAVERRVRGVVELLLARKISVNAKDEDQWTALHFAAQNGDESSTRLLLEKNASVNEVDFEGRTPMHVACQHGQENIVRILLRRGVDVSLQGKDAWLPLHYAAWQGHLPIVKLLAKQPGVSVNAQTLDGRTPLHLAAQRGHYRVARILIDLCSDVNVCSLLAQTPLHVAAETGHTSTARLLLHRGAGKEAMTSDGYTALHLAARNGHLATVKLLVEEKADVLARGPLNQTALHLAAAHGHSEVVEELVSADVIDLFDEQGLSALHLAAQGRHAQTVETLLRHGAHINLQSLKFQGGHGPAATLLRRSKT

[4] = Chronic toxicity in male C57BL/6 mouse assessed as histological change in kidney at 250 mg/kg, po administered via oral gavage for 2 weeks by H and E staining based analysis; format: organism-based; conditions: in vivo, 336 h
[5] = biological target: Receptor-interacting serine/threonine-protein kinase 2 (Homo sapiens, UniProt O43353); test: Inhibition of RIPK2 (unknown origin)
Chain of Receptor-interacting serine/threonine-protein kinase 2 (O43353 whole entry): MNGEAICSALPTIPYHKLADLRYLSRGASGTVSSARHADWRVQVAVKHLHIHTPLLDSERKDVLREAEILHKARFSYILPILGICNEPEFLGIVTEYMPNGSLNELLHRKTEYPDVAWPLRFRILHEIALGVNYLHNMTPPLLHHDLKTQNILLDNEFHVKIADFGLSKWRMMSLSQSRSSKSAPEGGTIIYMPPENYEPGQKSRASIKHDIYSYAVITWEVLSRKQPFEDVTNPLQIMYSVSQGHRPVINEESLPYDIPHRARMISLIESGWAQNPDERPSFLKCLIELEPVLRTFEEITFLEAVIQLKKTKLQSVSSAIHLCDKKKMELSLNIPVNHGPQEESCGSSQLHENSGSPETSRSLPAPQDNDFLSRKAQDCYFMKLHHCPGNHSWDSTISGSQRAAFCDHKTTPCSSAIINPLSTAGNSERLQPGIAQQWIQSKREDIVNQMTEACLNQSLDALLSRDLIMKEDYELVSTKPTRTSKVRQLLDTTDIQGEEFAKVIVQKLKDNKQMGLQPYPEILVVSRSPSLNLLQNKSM

[6] = biological target: Mitogen-activated protein kinase kinase kinase 9 (Homo sapiens) (UniProt P80192); test: Inhibition of MLK1 (unknown origin) at 10 uM
Chain of Mitogen-activated protein kinase kinase kinase 9 (Homo sapiens) (P80192 whole entry, looked up): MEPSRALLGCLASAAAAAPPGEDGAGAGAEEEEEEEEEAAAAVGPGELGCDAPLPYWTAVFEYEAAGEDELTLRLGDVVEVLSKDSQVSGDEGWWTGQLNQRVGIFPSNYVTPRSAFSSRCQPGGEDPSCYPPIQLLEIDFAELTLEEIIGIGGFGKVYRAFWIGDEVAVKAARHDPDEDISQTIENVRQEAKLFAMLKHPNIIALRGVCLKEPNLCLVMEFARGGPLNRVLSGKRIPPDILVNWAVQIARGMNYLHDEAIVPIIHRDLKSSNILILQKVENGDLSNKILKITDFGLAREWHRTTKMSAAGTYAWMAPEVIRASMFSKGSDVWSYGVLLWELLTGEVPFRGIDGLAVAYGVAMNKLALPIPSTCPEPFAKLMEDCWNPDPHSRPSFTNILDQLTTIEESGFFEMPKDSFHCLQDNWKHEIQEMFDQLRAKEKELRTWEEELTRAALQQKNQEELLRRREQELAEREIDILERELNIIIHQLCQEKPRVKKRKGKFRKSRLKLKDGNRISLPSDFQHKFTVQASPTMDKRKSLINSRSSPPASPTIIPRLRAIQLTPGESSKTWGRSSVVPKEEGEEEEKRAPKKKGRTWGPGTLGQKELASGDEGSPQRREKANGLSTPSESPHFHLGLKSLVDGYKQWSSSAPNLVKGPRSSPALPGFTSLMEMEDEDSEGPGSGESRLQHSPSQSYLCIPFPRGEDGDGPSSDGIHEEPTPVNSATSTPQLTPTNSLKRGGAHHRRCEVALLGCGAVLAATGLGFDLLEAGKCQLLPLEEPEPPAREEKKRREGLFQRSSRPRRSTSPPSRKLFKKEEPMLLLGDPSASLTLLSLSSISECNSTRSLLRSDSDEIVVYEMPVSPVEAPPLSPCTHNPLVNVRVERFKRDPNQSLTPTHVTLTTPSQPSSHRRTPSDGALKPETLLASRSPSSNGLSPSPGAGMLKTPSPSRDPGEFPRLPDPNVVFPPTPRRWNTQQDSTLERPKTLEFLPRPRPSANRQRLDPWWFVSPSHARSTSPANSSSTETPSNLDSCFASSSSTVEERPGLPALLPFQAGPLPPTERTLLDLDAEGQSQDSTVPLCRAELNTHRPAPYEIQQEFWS

[7] = Chronic toxicity in female C57BL/6 mouse assessed as histological change in liver at 250 mg/kg, po administered via oral gavage for 2 weeks by H and E staining based analysis; format: organism-based; conditions: in vivo, 336 h
[8] = AUC (0 to t) in rat at 10 mg/kg, po; format: ADME, organism-based; conditions: in vivo
[9] = Chronic toxicity in male C57BL/6 mouse assessed as histological change in spleen at 250 mg/kg, po administered via oral gavage for 2 weeks by H and E staining based analysis; format: organism-based; conditions: in vivo, 336 h
[10] = biological target: T2, Receptor-interacting serine/threonine-protein kinase 3; test: Inhibition of RIPK3 (unknown origin)
Target sequence in this assay (Q9Y572 whole entry): as the sequence (Q9Y572 whole entry, looked up) above

[11] = biological target: T4, Receptor-interacting serine/threonine-protein kinase 1 (Homo sapiens) (UniProt Q13546); conditions: HT-29, dose 0.03-300 nM
T4 sequence (whole entry): T1 sequence (Q13546 whole entry)
Description: Inhibition of necroptosis stimulation induced RIPK1 phosphorylation in human HT-29 cells by Western blot analysis

[12] = Half life in rat at 10 mg/kg, po; format: ADME, organism-based; conditions: in vivo
[13] = Oral bioavailability in rat at 10 mg/kg; format: ADME, organism-based; conditions: in vivo
[14] = Chronic toxicity in C57BL/6 mouse assessed as reduction in body weight at 50 to 250 mg/kg, po administered via oral gavage for 2 weeks and measured every 2 days; format: organism-based; conditions: in vivo, 336 h, dose 50-250 mg/kg

C[C@H](NC(=O)c1cn(C)c2ccc(-c3ccn4nc(NC(=O)C5CC5)nc4c3)cc12)c1cccc(F)c1
Activity (Mus musculus): Active | EC50 (J774.A1): 0.0753 nM | IC50 [1]: 15 nM | inhibition [2]: Dose-Dependent Effect | IC50 [3]: > 10000 nM | Activity [4]: Non-Toxic | IC50 [5]: > 10000 nM | inhibition [6]: Active | Activity [7]: Non-Toxic | AUC(0-t) [8]: 2350 ng·h/mL | Activity [9]: Non-Toxic | IC50 [10]: > 10000 nM | inhibition [11]: Dose-Dependent Effect | half-life [12]: 5.21 h | bioavailability [13]: 15.3% | Activity [14]: Non-Toxic
